Values belong to the compound of their own block, whether it stands above or below them.
Test system: 282377-053-R-J1-PDC complex spheroid viability
Assay: Anticancer human tumor 282377-053-R-J1-PDC patient-derived colon adenocarcinoma cell line growth inhibition [RAS]
Details: for IC50: curve of first compound; for viability, T/C: stronger effect = lower value
Excerpt: RAS pathway inhibitors in Combinations in Complex Spheroids
A high-throughput screen of multi-cell type tumor spheroids was designed to identify active combinations of RAS pathway inhibitors and targeted small molecules. Complex spheroids include a stromal component modeled by human endothelial cells (HUVEC) and fibroblasts modeled by human mesenchymal stem cells (MSCs). The concentration ranges selected for each drug and investigational agent were based upon clinically achievable concentrations if the clinical Cmax of the agent was known.
Compounds. The drugs and investigational agents: abemaciclib (NSC768073), cobimetinib (NSC768068), divarasib (GDC6063, NSC841802), docetaxel (NSC628503), GDC-1971 (RLY-1971, NSC841576), gemcitabine (NSC613327), inavolisib (NSC800729), ipatasertib (NSC767898), KB-0742 (NSC834161), MRTX-1133 (NSC836407), osimertinib (NSC779217), RMC-4630 (NSC839698), RMC-6236 (NSC851965), RMC-6291 (NSC852671), Ro-3306 (NSC812927), sapanisertib (NSC764658), SN-38 (NSC673596), staurosporine (NSC755774), SY5609 (NSC837396), and tovorafenib (DAY101, NSC766906), were obtained from the National Cancer Institute (NCI) Developmental Therapeutics Program Chemical Repository. The FDA-approved anticancer drug set is available from the NCI Developmental Therapeutics Program. […] The stock solutions were prepared in dimethyl sulfoxide (DMSO, Sigma-Aldrich, St. Louis, MO, cat. D2650) at 800-fold the tested concentration and stored at -70 degrees C prior to their use. All drugs and investigational agents were tested over a range starting from a high concentration at or near the clinical Cmax and decreasing in half-log increments. If the clinical Cmax for an agent had not been determined, the highest concentration tested was 10 microM.
Cell Culture. All cells were maintained in an incubator at 37 degrees C and 5% CO2 with 95% humidity. The PDC lines were cultured according to standard operating procedures established by the NCI PDMR. All PDCs were thawed and cultured in Matrigel-coated flasks prepared with a working solution of 1X Ham's F-12 nutrient mix, without supplementation (Invitrogen, Waltham, MA, cat. 11765054), 100 U/mL penicillin-streptomycin (Invitrogen, cat. 15140122), and 2.5% Matrigel (Corning Inc., Corning, NY, cat. 354248) for the first three passages. The 362531-283-R-J2-PDC and 782815-120-R-J1-PDC lines were cultured in 6C/Colon 1B media, which includes advanced DMEM/F-12 (Thermo Fisher Scientific, cat. 12634028), 10 mM HEPES (Thermo Fisher Scientific, cat. 15630080), 1X GlutaMAX supplement (Thermo Fisher Scientific, cat. 35050061), 0.1 mg/mL primocin (InvivoGen, San Diego, CA, cat. ant-pm-2), 10% defined fetal bovine serum, heat inactivated (HyClone Laboratories Inc., Logan, UT, cat. SH30070.03HI), 50% L-WRN conditioned media (ATCC, cat. CRL-3276), 1.25 mM N-Acetyl-L-cysteine (Sigma-Aldrich, cat. A9165), 10 mM nicotinamide (Sigma-Aldrich, cat. N0636), 1X B-27 supplement (Thermo Fisher Scientific, cat. 17504044), 1X N-2 supplement (Thermo Fisher Scientific, cat. 17502048), 50 ng/mL human EGF (Thermo Fisher Scientific, cat. PHG0311), and 10 microM Y-27632 dihydrochloride (Tocris Bioscience, cat. 1254). The K12877-001-R-J1-PDC line was cultured in 6I media, which includes all 6C/Colon 1B media plus 10 ng/mL human FGF-10 (PeproTech, cat. 100-26), 1 ng/mL human FGF-2 (PeproTech, cat. 100-18B), 1 µM prostaglandin E2 (Tocris Bioscience, cat. 2296), […] hydrocortisone (Sigma-Aldrich, cat. H4001), and […] bovine insulin (Sigma-Aldrich, cat. I6634). The K86415-001-R-J1-PDC line was cultured in 6D media, which includes all 6C/Colon 1B media components minus the L-WRN conditioned media. The 485176-168-R4-J1-PDC was cultured in PANC media, which includes all 6C/Colon 1B media plus 100 ng/mL human FGF-10 (PeproTech, cat. 100-26), 500 nM SB-431542 (Selleckchem, cat. S1067), and 10 nM gastrin (Tocris Bioscience, cat. 3006). […]

[1] = second compound 0.0316 µM, first compound 0.0316 µM
[2] = second compound 0.0316 µM, first compound 0.1 µM
[3] = second compound 0.0316 µM, first compound 0.316 µM
[4] = second compound 0.0316 µM, first compound 1 µM
[5] = second compound 0.0316 µM, first compound 3.16 µM
[6] = second compound 0.0316 µM, first compound 10 µM
[7] = second compound 0.1 µM, first compound 0.0316 µM
[8] = second compound 0.1 µM, first compound 0.1 µM
[9] = second compound 0.1 µM, first compound 0.316 µM
[10] = second compound 0.1 µM, first compound 1 µM
[11] = second compound 0.1 µM, first compound 3.16 µM
[12] = second compound 0.1 µM, first compound 10 µM
[13] = second compound 0.316 µM, first compound 0.0316 µM
[14] = second compound 0.316 µM, first compound 0.1 µM
[15] = second compound 0.316 µM, first compound 0.316 µM
[16] = second compound 0.316 µM, first compound 1 µM
[17] = second compound 0.316 µM, first compound 3.16 µM
[18] = second compound 0.316 µM, first compound 10 µM
[19] = second compound 1 µM, first compound 0.0316 µM
[20] = second compound 1 µM, first compound 0.1 µM
[21] = second compound 1 µM, first compound 0.316 µM
[22] = second compound 1 µM, first compound 1 µM
[23] = second compound 1 µM, first compound 3.16 µM
[24] = second compound 1 µM, first compound 10 µM
[25] = second compound 3.16 µM, first compound 0.0316 µM
[26] = second compound 3.16 µM, first compound 0.1 µM
[27] = second compound 3.16 µM, first compound 0.316 µM
[28] = second compound 3.16 µM, first compound 1 µM
[29] = second compound 3.16 µM, first compound 3.16 µM
[30] = second compound 3.16 µM, first compound 10 µM
[31] = second compound 10 µM, first compound 0.0316 µM
[32] = second compound 10 µM, first compound 0.1 µM
[33] = second compound 10 µM, first compound 0.316 µM
[34] = second compound 10 µM, first compound 1 µM
[35] = second compound 10 µM, first compound 3.16 µM
[36] = second compound 10 µM, first compound 10 µM
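Note: spheroids exposed to agents for seven days before readout.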
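Throughout, for viability, T/C: luminescence viability as percent of DMSO vehicle control wells.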

IC50 (second compound 0.0316 µM): > 10 µM
IC50 (second compound 0.1 µM): > 10 µM
IC50 (second compound 0.316 µM): > 10 µM
IC50 (second compound 1 µM): > 10 µM
IC50 (second compound 3.16 µM): > 10 µM
IC50 (second compound 10 µM): > 10 µM
SMILES: CC(C)NCC(C(=O)N1CCN(c2ncnc3c2C(C)CC3O)CC1)c1ccc(Cl)cc1 (stereo unspecified) + C#Cc1c(F)ccc2cc(O)cc(-c3ncc4c(N5CC6CCC(C5)N6)nc(OCC56CCCN5CC(F)C6)nc4c3F)c12
viability, T/C [1]: 133%
viability, T/C [2]: 111%
viability, T/C [3]: 88.9%
viability, T/C [4]: 94.6%
viability, T/C [5]: 84.1%
viability, T/C [6]: 82.3%
viability, T/C [7]: 88.5%
viability, T/C [8]: 86.5%
viability, T/C [9]: 76.9%
viability, T/C [10]: 90.3%
viability, T/C [11]: 83.5%
viability, T/C [12]: 72.2%
viability, T/C [13]: 104%
viability, T/C [14]: 110%
viability, T/C [15]: 92.8%
viability, T/C [16]: 83%
viability, T/C [17]: 85.9%
viability, T/C [18]: 85.3%
viability, T/C [19]: 105%
viability, T/C [20]: 79.8%
viability, T/C [21]: 89.2%
viability, T/C [22]: 82.5%
viability, T/C [23]: 63.7%
viability, T/C [24]: 69.5%
viability, T/C [25]: 98.5%
viability, T/C [26]: 96.7%
viability, T/C [27]: 81.4%
viability, T/C [28]: 77.7%
viability, T/C [29]: 92.1%
viability, T/C [30]: 70.4%
viability, T/C [31]: 83%
viability, T/C [32]: 87.7%
viability, T/C [33]: 88.9%
viability, T/C [34]: 91.4%
viability, T/C [35]: 86.4%
viability, T/C [36]: 72.4%

IC50 (second compound 0.0316 µM): > 0.1 µM
IC50 (second compound 0.1 µM): > 0.1 µM
IC50 (second compound 0.316 µM): 0.0881 µM
IC50 (second compound 1 µM): > 0.1 µM
IC50 (second compound 3.16 µM): 0.0783 µM
IC50 (second compound 10 µM): > 0.1 µM
SMILES: CC(C)n1nc(-c2ccc3oc(N)nc3c2)c2c(N)ncnc21 + C#Cc1c(F)ccc2cc(O)cc(-c3ncc4c(N5CC6CCC(C5)N6)nc(OCC56CCCN5CC(F)C6)nc4c3F)c12
viability, T/C (second compound 0.0316 µM, first compound 0.000316 µM): 101%
viability, T/C (second compound 0.0316 µM, first compound 0.001 µM): 87.2%
viability, T/C (second compound 0.0316 µM, first compound 0.00316 µM): 105%
viability, T/C (second compound 0.0316 µM, first compound 0.01 µM): 77.5%
viability, T/C [1]: 72.7%
viability, T/C [2]: 56.9%
viability, T/C (second compound 0.1 µM, first compound 0.000316 µM): 115%
viability, T/C (second compound 0.1 µM, first compound 0.001 µM): 107%
viability, T/C (second compound 0.1 µM, first compound 0.00316 µM): 89%
viability, T/C (second compound 0.1 µM, first compound 0.01 µM): 77.7%
viability, T/C [7]: 66.6%
viability, T/C [8]: 50.2%
viability, T/C (second compound 0.316 µM, first compound 0.000316 µM): 99.8%
viability, T/C (second compound 0.316 µM, first compound 0.001 µM): 99.6%
viability, T/C (second compound 0.316 µM, first compound 0.00316 µM): 80.8%
viability, T/C (second compound 0.316 µM, first compound 0.01 µM): 71.1%
viability, T/C [13]: 69.4%
viability, T/C [14]: 45.3%
viability, T/C (second compound 1 µM, first compound 0.000316 µM): 104%
viability, T/C (second compound 1 µM, first compound 0.001 µM): 81.2%
viability, T/C (second compound 1 µM, first compound 0.00316 µM): 82.9%
viability, T/C (second compound 1 µM, first compound 0.01 µM): 66.4%
viability, T/C [19]: 75.9%
viability, T/C [20]: 46.8%
viability, T/C (second compound 3.16 µM, first compound 0.000316 µM): 87%
viability, T/C (second compound 3.16 µM, first compound 0.001 µM): 76%
viability, T/C (second compound 3.16 µM, first compound 0.00316 µM): 91.5%
viability, T/C (second compound 3.16 µM, first compound 0.01 µM): 81.1%
viability, T/C [25]: 76.3%
viability, T/C [26]: 42.8%
viability, T/C (second compound 10 µM, first compound 0.000316 µM): 108%
viability, T/C (second compound 10 µM, first compound 0.001 µM): 91.5%
viability, T/C (second compound 10 µM, first compound 0.00316 µM): 84.6%
viability, T/C (second compound 10 µM, first compound 0.01 µM): 72%
viability, T/C [31]: 52.7%
viability, T/C [32]: 60.7%

IC50 (second compound 0.0316 µM): > 10 µM
IC50 (second compound 0.1 µM): > 10 µM
IC50 (second compound 0.316 µM): > 10 µM
IC50 (second compound 1 µM): > 10 µM
IC50 (second compound 3.16 µM): > 10 µM
IC50 (second compound 10 µM): > 10 µM
SMILES: C[C@@H](NC(=O)c1ncnc(N)c1Cl)c1ncc(C(=O)Nc2cc(C(F)(F)F)c(Cl)cn2)s1 + C#Cc1c(F)ccc2cc(O)cc(-c3ncc4c(N5CC6CCC(C5)N6)nc(OCC56CCCN5CC(F)C6)nc4c3F)c12
viability, T/C [1]: 121%
viability, T/C [2]: 99.5%
viability, T/C [3]: 89.2%
viability, T/C [4]: 86.5%
viability, T/C [5]: 87.1%
viability, T/C [6]: 78.5%
viability, T/C [7]: 103%
viability, T/C [8]: 111%
viability, T/C [9]: 88.7%
viability, T/C [10]: 76.7%
viability, T/C [11]: 79.6%
viability, T/C [12]: 93.5%
viability, T/C [13]: 105%
viability, T/C [14]: 112%
viability, T/C [15]: 84.8%
viability, T/C [16]: 91.2%
viability, T/C [17]: 75.7%
viability, T/C [18]: 71.7%
viability, T/C [19]: 104%
viability, T/C [20]: 86.6%
viability, T/C [21]: 94.1%
viability, T/C [22]: 67%
viability, T/C [23]: 90.4%
viability, T/C [24]: 77%
viability, T/C [25]: 79.9%
viability, T/C [26]: 101%
viability, T/C [27]: 104%
viability, T/C [28]: 77.5%
viability, T/C [29]: 80.9%
viability, T/C [30]: 80.3%
viability, T/C [31]: 91.3%
viability, T/C [32]: 102%
viability, T/C [33]: 91.9%
viability, T/C [34]: 85%
viability, T/C [35]: 90.8%
viability, T/C [36]: 86.9%

Source: PubChem BioAssay AID2060905 (Molecular Pharmacology Branch, DTP, NCI, 2025)
